This note sets out measurements from ChEMBL document CHEMBL1147934, “Discovery of a novel small molecule binding site of human survivin” (Bioorg Med Chem Lett, 2007).

Structures are written as SMILES. ≈ marks a conversion by molar mass, not a printed value. Where only a bound is given, the exact number is not on record here.

Baculoviral IAP repeat-containing protein 5, sequence (O15392 whole entry): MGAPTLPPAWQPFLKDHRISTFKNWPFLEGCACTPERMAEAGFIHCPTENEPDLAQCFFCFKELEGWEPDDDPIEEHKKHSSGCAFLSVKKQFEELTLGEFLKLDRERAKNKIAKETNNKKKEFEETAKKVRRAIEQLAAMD

System in the first data set: not listed separately
Description: Solubility at pH 7.4 by shake flask method. The class given is physicochemical. The conditions noted are these: buffer.
The compound `CC(=O)N1CCC(C(=O)N(C)Cc2cc(Cl)cc(-c3cc(-c4cc(C(F)(F)F)ccc4Cl)c(C#N)c(=O)[nH]3)c2O)CC1` had a thermodynamic solubility of 300 µM (≈ 186 µg/mL). As to `COCC(=O)N1CCC(C(=O)N(C)Cc2cc(Cl)cc(-c3cc(-c4cc(C(F)(F)F)ccc4Cl)c(C#N)c(=O)[nH]3)c2O)CC1`, the solubility (thermodynamic) is 138 µM (≈ 89.9 µg/mL).

System in a further data set: not listed separately
In words: Solubility by nephelometry. The format is physicochemical.
Settings: not given
As to `CN(Cc1cc(Cl)cc(-c2cc(-c3cc(C(F)(F)F)ccc3Cl)c(C#N)c(=O)[nH]2)c1O)C(=O)C1CCN(C(=O)C2CCCCC2)CC1`, the solubility (kinetic) was > 32 µM. On the same count and under the same terms, with `CC(=O)N1CCC(C(=O)N(C)Cc2cc(Cl)cc(-c3cc(-c4cc(C(F)(F)F)ccc4Cl)c(C#N)c(=O)[nH]3)c2O)CC1` the figure was > 32 µM; with `CCCC(=O)N1CCC(C(=O)N(C)Cc2cc(Cl)cc(-c3cc(-c4cc(C(F)(F)F)ccc4Cl)c(C#N)c(=O)[nH]3)c2O)CC1`, > 32 µM; with `COCC(=O)N1CCC(C(=O)N(C)Cc2cc(Cl)cc(-c3cc(-c4cc(C(F)(F)F)ccc4Cl)c(C#N)c(=O)[nH]3)c2O)CC1`, > 32 µM.

The next data set addresses Baculoviral IAP repeat-containing protein 5 (Homo sapiens, UniProt O15392). In words: Binding affinity to human survivin expressed in Escherichia coli BL21 cells after 30 mins.
Settings: not given
Consider `Clc1cccc(Nc2ccc3ccccc3c2)c1`, for which the equilibrium dissociation constant (Kd) was < 10 µM. The same measure, in the same setting: with `N#Cc1c(-c2ccccc2)cc(-c2ccccc2O)[nH]c1=O` the figure was 75 µM; with `N#Cc1c(-c2cc(-c3ccccc3)ccc2Cl)cc(-c2cc(Br)ccc2O)[nH]c1=O`, > 4.3 µM; with `N#Cc1c(-c2ccccc2)cc(-c2cc(Br)ccc2O)[nH]c1=O`, 5 µM. Same read-out and setting: with `CCc1oc2ccccc2c1C(=O)c1cc(I)c(O)c(I)c1` [BENZIODARONE] the figure was 8 µM; with `Cc1ccnc(NC(=O)C2CCNCC2)c1`, 130 µM. Still for that read-out and setting: with `CC1(C)NC(=O)N(C/C(COc2ccc(-c3ccc(OC(F)(F)F)cc3)cc2)=N/O)C1=O` the figure was < 10 µM.
